`*C(=O)OCC(C)(C)CSCC(C)(C)COC(=O)C1(C)CNC(*)(C)CN1` (repeat unit) had a glass transition temperature of 40.00 °C.

In the case of `*CC(=C)COCC(=C)COC(=O)O*` (repeat unit), the glass transition temperature stood at 70.50 °C.

As for `*CC(=O)NCCCCCCNC(=O)CO*` (repeat unit), the glass transition temperature stood at 10.00 °C.

In turn, `*CC(C(C)C)C(COC(=O)c1ccc(C(=O)O*)cc1)C(C)C` (repeat unit) returned a glass transition temperature of 65.00 °C.

In turn, `*CC(C)(C)C(=O)O*` (repeat unit) returned a glass transition temperature of -12.00 °C.

`*CC(C)(C)CO*` (repeat unit) displayed a glass transition temperature of -50.00 °C.

In the case of `*CC(C)(C)COC(=O)C1CCC(C(=O)O*)CC1` (repeat unit), the glass transition temperature was determined as 30.00 °C.

`*CC(C)(C)COC(=O)CCCCC(=O)O*` (repeat unit) came in with a glass transition temperature of -31.5 °C.

As to `*CC(C)(C)COC(=O)Cc1ccc(C(=O)O*)cc1` (repeat unit), the glass transition temperature was 33.00 °C.

Turning to `*CC(C)(C)COC(=O)O*` (repeat unit), the glass transition temperature turned out to be 25.00 °C.

As to `*CC(C)(C)COC(=O)c1ccc(C(=O)O*)cc1` (repeat unit), the glass transition temperature turned out to be 68.00 °C.

`*CC(C)(C)CS(=O)(=O)CC(C)(C)COC(=O)c1ccc(C(=O)O*)cc1` (repeat unit): the glass transition temperature came to 105.00 °C.

Regarding `*CC(C)(CC)COC(=O)c1ccc(-c2ccc(C(=O)O*)cc2)cc1` (repeat unit), the glass transition temperature amounted to 99.00 °C.

Regarding `*CC(C)(CC)COC(=O)c1ccc(C(=O)O*)cc1` (repeat unit), the glass transition temperature came out at 63.00 °C.

Take `*CC(C)(CO*)COCC(F)(F)F` (repeat unit): the glass transition temperature was -41.00 °C.

The molecule `*CC(C)(CO*)COCCC#N` (repeat unit) registered a glass transition temperature of -52.00 °C.

With `*CC(C)(CO*)COCCCCCCCCCCOc1ccc(-c2ccc(C#N)cc2)cc1` (repeat unit), the glass transition temperature amounted to 7.00 °C.

In turn, `*CC(C)(COC(=O)NCCCCCCNC(=O)O*)C(=O)O` (repeat unit) showed a glass transition temperature of -26.00 °C.

In turn, `*CC(C)C(C)COC(=O)c1ccc(C(=O)O*)cc1` (repeat unit) came in with a glass transition temperature of 37.50 °C.

In turn, `*CC(CC)(CC)C(=O)O*` (repeat unit) came in with a glass transition temperature of 60.00 °C.

`*CC(CC)(CC)COC(=O)c1ccc(-c2ccc(-c3ccc(C(=O)O*)cc3)cc2)cc1` (repeat unit) returned a glass transition temperature of -20.00 °C.

`*CC(CC)(CO)CO*` (repeat unit) had a glass transition temperature of 331.90 °C.

`*CC(CC)C(CC)COC(=O)c1ccc(C(=O)O*)cc1` (repeat unit) came in with a glass transition temperature of 32.00 °C.

Molecule `*CC(CCC)C(CCC)COC(=O)c1ccc(C(=O)O*)cc1` (repeat unit) came in with a glass transition temperature of 30.00 °C.

For the molecule `*CC(CCCC)C(CCCC)COC(=O)c1ccc(C(=O)O*)cc1` (repeat unit), the glass transition temperature was determined as 16.00 °C.

The molecule `*CC(CCCCCCCCCCCC)COC(=O)NC(=O)c1ccc(C(=O)NC(=O)O*)cc1` (repeat unit) came in with a glass transition temperature of 75.00 °C.

In the case of `*CC(CCCCCCOc1ccc(/N=N/c2ccc(C)cc2)cc1)COC(=O)CCCCC(=O)O*` (repeat unit), the glass transition temperature is 29.00 °C.

`*CC(CCCCCCOc1ccc(/N=N/c2ccc(OC)cc2)cc1)COC(=O)CCCCC(=O)O*` (repeat unit) registered a glass transition temperature of 22.00 °C.

With `*CC(CO)(CO)CO*` (repeat unit), the glass transition temperature was found to be 99.00 °C.

In the case of `*CC(OC(=O)C(CC(C)C)NC(=O)OCc1ccccc1)C(COC(=O)O*)OC(=O)C(CC(C)C)NC(=O)OCc1ccccc1` (repeat unit), the glass transition temperature was found to be 50.90 °C.

The molecule `*CC(OC(=O)Oc1ccc(C(=O)OC)cc1)C(COC(=O)O*)OC(=O)Oc1ccc(C(=O)OC)cc1` (repeat unit) displayed a glass transition temperature of 90.90 °C.

`*CCC(C)Oc1ccc(-c2ccc(C(=O)OCC(C)COC(=O)c3ccc(-c4ccc(O*)cc4)cc3)cc2)cc1` (repeat unit) returned a glass transition temperature of 84.00 °C.

In the case of `*COC(=O)OCC1OC(C)(C)OC1*` (repeat unit), the glass transition temperature came to 51.30 °C.

On to `*COC(=O)OCC1OC(OCC)OC1*` (repeat unit), for which the glass transition temperature was 23.50 °C.

In turn, `*COC1OC(*)C(O)C(O)C1O` (repeat unit) yielded a glass transition temperature of 200.00 °C.

Molecule `*Nc1cccc(NC(=O)c2cc(NC(=O)C(CCSC)N3C(=O)c4ccccc4C3=O)cc(C(*)=O)c2)c1` (repeat unit) gave a glass transition temperature of 196.00 °C.

For `*OC(=O)OCC1OC(C)(C)OC1COC(=O)OC1COC2C(*)COC12` (repeat unit), the glass transition temperature was 95.50 °C.

In the case of `*OC(C)COC(=O)c1ccccc1C(*)=O` (repeat unit), the glass transition temperature was determined as 95.00 °C.

With `*OC(C)COCC(C)OC(=O)c1ccccc1C(*)=O` (repeat unit), the glass transition temperature came to 25.00 °C.

`*OC(COC(=O)C12CC3CC(CC(C(*)=O)(C3)C1)C2)COc1ccc(/N=N/c2ccc(C#N)cc2)cc1` (repeat unit) had a glass transition temperature of 105.00 °C.

Molecule `*OC(COC(=O)C1CCC(C(*)=O)CC1)COc1ccc(/N=N/c2ccc(C#N)cc2)cc1` (repeat unit) gave a glass transition temperature of 106.00 °C.

`*OC(COC(=O)c1cccc(C(*)=O)c1)COc1ccc(/N=N/c2ccc(C#N)cc2)cc1` (repeat unit): the glass transition temperature was 119.00 °C.

The molecule `*OC(COC(=O)c1ccccc1-c1ccccc1C(*)=O)COc1ccc(/N=N/c2ccc(C#N)cc2)cc1` (repeat unit) gave a glass transition temperature of 120.00 °C.

Consider `*OC(COC(=O)c1ccccc1C(*)=O)COc1ccc(/N=N/c2ccc(C#N)cc2)cc1` (repeat unit), for which the glass transition temperature is 105.00 °C.

Turning to `*OC(COCCOC)COC(*)=O` (repeat unit), the glass transition temperature is -50.00 °C.

Molecule `*O[Si](C)(C)COC(=O)CCCCCCCCC(=O)Oc1ccc(S(=O)(=O)c2ccc(Oc3ccc(/C=C4\CCC/C(=C\c5ccc(Oc6ccc(S(=O)(=O)c7ccc(OC(=O)CCCCCCCCC(=O)OC[Si](*)(C)C)cc7)cc6)cc5)C4=O)cc3)cc2)cc1` (repeat unit) had a glass transition temperature of 80.00 °C.

The molecule `*Oc1ccc(C(=O)CNc2ccc(S(=O)(=O)c3ccc(NCC(=O)c4ccc(*)cc4)cc3)cc2)cc1` (repeat unit) came in with a glass transition temperature of 247.00 °C.

With `*Oc1ccc(C(=O)OCC(C)(C)COC(=O)c2ccc(*)cc2)cc1` (repeat unit), the glass transition temperature was determined as 73.00 °C.

`*Oc1cccc(NC(=O)c2cc(NC(=O)c3ccc(OC(C)=O)cc3)cc(C(=O)Nc3ccc(*)cc3)c2)c1` (repeat unit) yielded a glass transition temperature of 251.00 °C.

With `*c1ccc(C(=O)NC(CC)COC(=O)c2ccc(N3C(=O)CC(SCCCCCSC4CC(=O)N(*)C4=O)C3=O)cc2)cc1` (repeat unit), the glass transition temperature was 91.00 °C.

Molecule `*c1ccc2c(c1)C(=O)N(c1cc(C(=O)Nc3cccc4c(NC(=O)c5ccc(C)c(N6C(=O)c7ccc(C(*)(C(F)(F)F)C(F)(F)F)cc7C6=O)c5)cccc34)ccc1C)C2=O` (repeat unit) came in with a glass transition temperature of 250.00 °C.

Values taken from the PolyMetriX glass transition set.
